Test results from ChEMBL document CHEMBL2029320 (J Med Chem, 2012).
The source made the active and inactive calls. No cut-off for these calls is given here. Residues, ends and D or L forms follow the SMILES beside them.

Assays:
Relaxin-3 receptor 1 [1] = molecular target: T1, Relaxin-3 receptor 1 (Homo sapiens, UniProt Q9NSD7); test: Displacement of europium-labelled H3 relaxin-B chain/INSL-5 chain from RXFP3 expressed in CHO-K1 cells; assay type: cell-based
T1 sequence (Q9NSD7 whole entry): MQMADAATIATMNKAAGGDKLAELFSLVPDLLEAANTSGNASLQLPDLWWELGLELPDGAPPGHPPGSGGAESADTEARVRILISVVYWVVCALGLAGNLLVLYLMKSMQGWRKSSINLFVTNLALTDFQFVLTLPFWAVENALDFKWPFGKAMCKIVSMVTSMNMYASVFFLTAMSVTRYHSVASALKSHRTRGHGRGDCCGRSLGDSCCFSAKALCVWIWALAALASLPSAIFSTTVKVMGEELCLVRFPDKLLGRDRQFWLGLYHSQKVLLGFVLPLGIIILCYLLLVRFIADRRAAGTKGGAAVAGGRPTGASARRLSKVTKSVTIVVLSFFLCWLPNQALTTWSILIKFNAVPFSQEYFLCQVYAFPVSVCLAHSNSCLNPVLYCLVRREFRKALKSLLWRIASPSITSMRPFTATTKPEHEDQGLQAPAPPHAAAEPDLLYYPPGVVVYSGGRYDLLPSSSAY

[2] = molecular target: T2, Relaxin receptor 1 (Homo sapiens) (UniProt Q9HBX9); test: Activation of RXFP1 expressed in HEK-293T cells assessed as induction of cAMP accumulation after 6 hrs by beta galactosidase reporter gene assay; assay type: functional, cell-based
T2 sequence (whole entry): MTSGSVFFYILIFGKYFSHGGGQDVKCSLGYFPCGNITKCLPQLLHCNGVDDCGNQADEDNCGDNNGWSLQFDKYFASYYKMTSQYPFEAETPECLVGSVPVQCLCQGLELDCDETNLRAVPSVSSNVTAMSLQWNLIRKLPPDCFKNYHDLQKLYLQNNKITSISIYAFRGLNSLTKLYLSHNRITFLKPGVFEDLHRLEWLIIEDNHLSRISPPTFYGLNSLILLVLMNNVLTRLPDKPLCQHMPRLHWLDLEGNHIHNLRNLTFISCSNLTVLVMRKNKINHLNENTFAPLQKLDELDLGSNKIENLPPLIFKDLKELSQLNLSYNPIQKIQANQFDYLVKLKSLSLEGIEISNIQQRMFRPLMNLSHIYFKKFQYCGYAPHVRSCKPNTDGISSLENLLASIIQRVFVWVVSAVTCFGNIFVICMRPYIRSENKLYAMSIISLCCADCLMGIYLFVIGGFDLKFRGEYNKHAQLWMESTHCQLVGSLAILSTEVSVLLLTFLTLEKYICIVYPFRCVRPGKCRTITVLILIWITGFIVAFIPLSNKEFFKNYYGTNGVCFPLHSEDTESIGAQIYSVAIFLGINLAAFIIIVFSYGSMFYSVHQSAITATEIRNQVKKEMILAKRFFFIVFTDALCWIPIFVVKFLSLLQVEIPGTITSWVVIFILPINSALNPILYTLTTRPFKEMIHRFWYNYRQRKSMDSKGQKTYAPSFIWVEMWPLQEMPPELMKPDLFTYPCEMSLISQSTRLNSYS

Relaxin-3 receptor 2 = Relaxin-3 receptor 2 (Homo sapiens, UniProt Q8TDU9); test: Agonist activity at RXFP4 expressed in CHO-K1 cells assessed as inhibition of forskolin-induced cAMP accumulation after 6 hrs by beta galactosidase reporter gene assay; assay type: functional, cell-based
Relaxin receptor 1 = molecular target: T3, Relaxin receptor 1 (Homo sapiens, UniProt Q9HBX9); test: Displacement of europium-labelled H2 relaxin from RXFP1 expressed in HEK-293T cells; assay type: cell-based
T3 sequence (Q9HBX9 whole entry): T2 sequence (whole entry)

Relaxin-3 receptor 1 [3] = molecular target: T1, Relaxin-3 receptor 1; test: Agonist activity at RXFP3 expressed in CHO-K1 cells assessed as inhibition of forskolin-induced cAMP accumulation after 6 hrs by beta galactosidase reporter gene assay; assay type: functional, cell-based

Sequence of Relaxin-3 receptor 2 (Q8TDU9 whole entry): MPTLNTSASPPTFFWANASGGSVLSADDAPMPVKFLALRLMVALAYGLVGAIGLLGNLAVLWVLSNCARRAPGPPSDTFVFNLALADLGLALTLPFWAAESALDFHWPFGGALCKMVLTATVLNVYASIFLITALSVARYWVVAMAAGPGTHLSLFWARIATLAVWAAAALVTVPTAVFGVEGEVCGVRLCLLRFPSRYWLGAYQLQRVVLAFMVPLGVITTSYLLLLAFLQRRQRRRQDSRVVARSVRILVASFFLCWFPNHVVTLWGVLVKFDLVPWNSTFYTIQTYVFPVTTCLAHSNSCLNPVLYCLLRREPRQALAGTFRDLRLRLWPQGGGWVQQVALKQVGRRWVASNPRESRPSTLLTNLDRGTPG

Row | Compound | Ki (Relaxin-3 receptor 1 [1]) [µM] | also measured
1 | H-RAAPYGVRLSGREFIRKVIFTSGGSRW-OH | > 10 | –
2 | CC[C@H](C)[C@H](NC(=O)[C@H](CS)NC(=O)[C@H](CCC(=O)O)NC(=O)[C@H](CCCN=C(N)N)NC(=O)CNC(=O)[C@H](CS)NC(=O)[C@H](CC(C)C)NC(=O)[C@H](CCCN=C(N)N)NC(=O)[C@@H](NC(=O)CNC(=O)[C@H](Cc1ccc(O)cc1)NC(=O)[C@@H]1CCCN1C(=O)[C@H](C)NC(=O)[C@H](C)NC(=O)[C@@H](N)CCCN=C(N)N)C(C)C)C(=O)N[C@@H](CCCN=C(N)N)C(=O)N[C@@H](C)C(=O)N[C@@H](CS)C(=O)N[C@H](C(=O)N[C@@H](Cc1ccccc1)C(=O)N[C@H](C(=O)N[C@@H](CS)C(=O)NCC(=O)NCC(=O)N[C@@H](CO)C(=O)N[C@@H](CCCN=C(N)N)C(=O)N[C@@H](Cc1c[nH]c2ccccc12)C(=O)O)[C@@H](C)O)[C@@H](C)CC (H-RAAPYGVRLCGRECIRACIFTCGGSRW-OH) | > 10 | –
3 | CC[C@H](C)[C@@H]1NC(=O)[C@H](Cc2ccccc2)NC(=O)[C@H](CCC(=O)O)NC(=O)[C@H](CCCNC(=N)N)NC(=O)CNC(=O)[C@@H](NC(=O)[C@H](CC(C)C)NC(=O)[C@@H](N)CCCNC(=N)N)CSSC[C@H](N)C(=O)N[C@@H](CCCCN)C(=O)N[C@@H](Cc2c[nH]c3ccccc23)C(=O)NCC(=O)N[C@@H](C)C(=O)N[C@@H](CO)C(=O)N[C@@H](CCCCN)C(=O)N[C@@H](CO)C(=O)N[C@@H](CCC(=O)O)C(=O)N[C@@H]([C@@H](C)CC)C(=O)N[C@@H](CO)C(=O)N[C@@H](CO)C(=O)N[C@@H](CC(C)C)C(=O)N[C@H](C(=O)O)CSSC[C@@H](C(=O)NCC(=O)NCC(=O)N[C@@H](CO)C(=O)N[C@@H](CCCNC(=N)N)C(=O)N[C@@H](Cc2c[nH]c3ccccc23)C(=O)O)NC(=O)[C@H]([C@@H](C)O)NC(=O)[C@H](Cc2ccccc2)NC(=O)[C@H]([C@@H](C)CC)NC(=O)[C@H](C(C)C)NC(=O)[C@H](C)NC(=O)[C@H](CCCNC(=N)N)NC1=O | – | pIC50 [2]: inactive
4 | H-RAAPYGVRLSGREFIRAVIFTRGGSRW-OH | 3.39 | –
5 | CC[C@H](C)[C@H](NC(=O)[C@H](Cc1ccccc1)NC(=O)[C@H](CCC(=O)O)NC(=O)[C@H](CCCNC(=N)N)NC(=O)CNC(=O)[C@H](CO)NC(=O)[C@H](CC(C)C)NC(=O)[C@H](CCCNC(=N)N)NC(=O)[C@@H](NC(=O)CNC(=O)[C@H](CS)NC(=O)[C@@H]1CCCN1C(=O)[C@H](C)NC(=O)[C@H](C)NC(=O)[C@@H](N)CCCNC(=N)N)C(C)C)C(=O)N[C@@H](CCCNC(=N)N)C(=O)N[C@@H](C)C(=O)N[C@H](C(=O)N[C@H](C(=O)N[C@@H](Cc1ccccc1)C(=O)N[C@@H](CS)C(=O)N[C@@H](CO)C(=O)NCC(=O)NCC(=O)N[C@@H](CO)C(=O)N[C@@H](CCCNC(=N)N)C(=O)N[C@@H](Cc1c[nH]c2ccccc12)C(=O)O)[C@@H](C)CC)C(C)C (H-RAAPCGVRLSGREFIRAVIFCSGGSRW-OH) | > 10 | –
6 | CC[C@H](C)[C@@H]1NC(=O)[C@H](Cc2ccccc2)NC(=O)[C@H](CCC(=O)O)NC(=O)[C@H](CCCNC(=N)N)NC(=O)CNC(=O)[C@@H](N)CSSC[C@H](N)C(=O)N[C@@H](CCCCN)C(=O)N[C@@H](Cc2c[nH]c3ccccc23)C(=O)NCC(=O)N[C@@H](C)C(=O)N[C@@H](CO)C(=O)N[C@@H](CCCCN)C(=O)N[C@@H](CO)C(=O)N[C@@H](CCC(=O)O)C(=O)N[C@@H]([C@@H](C)CC)C(=O)N[C@@H](CO)C(=O)N[C@@H](CO)C(=O)N[C@@H](CC(C)C)C(=O)N[C@H](C(=O)O)CSSC[C@@H](C(=O)NCC(=O)NCC(=O)N[C@@H](CO)C(=O)N[C@@H](CCCNC(=N)N)C(=O)N[C@@H](Cc2c[nH]c3ccccc23)C(=O)O)NC(=O)[C@H]([C@@H](C)O)NC(=O)[C@H](Cc2ccccc2)NC(=O)[C@H]([C@@H](C)CC)NC(=O)[C@H](C(C)C)NC(=O)[C@H](C)NC(=O)[C@H](CCCNC(=N)N)NC1=O | – | pIC50 [2]: inactive
7 | CC[C@H](C)[C@@H]1NC(=O)[C@H](Cc2ccccc2)NC(=O)[C@H](CCC(=O)O)NC(=O)[C@H](CCCNC(=N)N)NC(=O)CNC(=O)[C@@H](NC(=O)[C@H](CC(C)C)NC(=O)[C@H](CCCNC(=N)N)NC(=O)[C@@H](NC(=O)CN)C(C)C)CSSC[C@H](N)C(=O)N[C@@H](CCCCN)C(=O)N[C@@H](Cc2c[nH]c3ccccc23)C(=O)NCC(=O)N[C@@H](C)C(=O)N[C@@H](CO)C(=O)N[C@@H](CCCCN)C(=O)N[C@@H](CO)C(=O)N[C@@H](CCC(=O)O)C(=O)N[C@@H]([C@@H](C)CC)C(=O)N[C@@H](CO)C(=O)N[C@@H](CO)C(=O)N[C@@H](CC(C)C)C(=O)N[C@H](C(=O)O)CSSC[C@@H](C(=O)NCC(=O)NCC(=O)N[C@@H](CO)C(=O)N[C@@H](CCCNC(=N)N)C(=O)N[C@@H](Cc2c[nH]c3ccccc23)C(=O)O)NC(=O)[C@H]([C@@H](C)O)NC(=O)[C@H](Cc2ccccc2)NC(=O)[C@H]([C@@H](C)CC)NC(=O)[C@H](C(C)C)NC(=O)[C@H](C)NC(=O)[C@H](CCCNC(=N)N)NC1=O | – | pIC50 [2]: inactive; IC50 (Relaxin-3 receptor 2): 0.0141 µM; Ki (Relaxin receptor 1): > 10 µM
8 | CC[C@H](C)[C@@H]1NC(=O)[C@H](Cc2ccccc2)NC(=O)[C@H](CCC(=O)O)NC(=O)[C@H](CCCN=C(N)N)NC(=O)CNC(=O)[C@@H](N)CSSC[C@H](N)C(=O)N[C@@H](CCCCN)C(=O)N[C@@H](Cc2c[nH]c3ccccc23)C(=O)NCC(=O)N[C@@H](C)C(=O)N[C@@H](CO)C(=O)N[C@@H](CCCCN)C(=O)N[C@@H](CO)C(=O)N[C@@H](CCC(=O)O)C(=O)N[C@@H]([C@@H](C)CC)C(=O)N[C@@H](CO)C(=O)N[C@@H](CO)C(=O)N[C@@H](CC(C)C)C(=O)N[C@H](C(=O)O)CSSC[C@@H](C(=O)NCC(=O)NCC(=O)N[C@@H](CO)C(=O)N[C@@H](CCCN=C(N)N)C(=O)N[C@@H](Cc2c[nH]c3ccccc23)C(=O)O)NC(=O)[C@H]([C@@H](C)O)NC(=O)[C@H](Cc2ccccc2)NC(=O)[C@H]([C@@H](C)CC)NC(=O)[C@H](C(C)C)NC(=O)[C@H](C)NC(=O)[C@H](CCCN=C(N)N)NC1=O | – | IC50 (Relaxin-3 receptor 2): 0.00347 µM; Ki (Relaxin receptor 1): > 10 µM
9 | CC[C@H](C)[C@H](NC(=O)[C@@H](NC(=O)[C@H](C)NC(=O)[C@H](CCCN=C(N)N)NC(=O)[C@H](CS)NC(=O)[C@H](Cc1ccccc1)NC(=O)[C@H](CCC(=O)O)NC(=O)[C@H](CCCN=C(N)N)NC(=O)CNC(=O)[C@H](CO)NC(=O)[C@H](CC(C)C)NC(=O)[C@H](CCCN=C(N)N)NC(=O)[C@@H](NC(=O)CNC(=O)[C@H](Cc1ccc(O)cc1)NC(=O)[C@@H]1CCCN1C(=O)[C@H](C)NC(=O)[C@H](C)NC(=O)[C@@H](N)CCCN=C(N)N)C(C)C)C(C)C)C(=O)N[C@@H](Cc1ccccc1)C(=O)N[C@H](C(=O)N[C@@H](CS)C(=O)NCC(=O)NCC(=O)N[C@@H](CO)C(=O)N[C@@H](CCCN=C(N)N)C(=O)N[C@@H](Cc1c[nH]c2ccccc12)C(=O)O)[C@@H](C)O (H-RAAPYGVRLSGREFCRAVIFTCGGSRW-OH) | > 10 | –

Now from value to compound, other results behind:

Row | Ki (Relaxin-3 receptor 1 [1]) [µM] | Compound | also measured
10 | 2.57 | H-RAAPYGVRLSGREFIRAVIFTSRGGSRW-OH | –
11 | 2.09 | H-RAAPYGVRLSGREFIRAVIFTSRGSRW-OH | –
12 | 0.741 | H-RAAPYGVRLSGREFIRAVIFRSGGSRW-OH | –
13 | 0.112 | CC[C@H](C)[C@@H]1NC(=O)[C@H](Cc2ccccc2)NC(=O)[C@H](CCC(=O)O)NC(=O)[C@H](CCCN=C(N)N)NC(=O)CNC(=O)[C@@H](NC(=O)[C@H](CC(C)C)NC(=O)[C@@H](N)CCCN=C(N)N)CSSC[C@H](N)C(=O)N[C@@H](CCCCN)C(=O)N[C@@H](Cc2c[nH]c3ccccc23)C(=O)NCC(=O)N[C@@H](C)C(=O)N[C@@H](CO)C(=O)N[C@@H](CCCCN)C(=O)N[C@@H](CO)C(=O)N[C@@H](CCC(=O)O)C(=O)N[C@@H]([C@@H](C)CC)C(=O)N[C@@H](CO)C(=O)N[C@@H](CO)C(=O)N[C@@H](CC(C)C)C(=O)N[C@H](C(=O)O)CSSC[C@@H](C(=O)NCC(=O)NCC(=O)N[C@@H](CO)C(=O)N[C@@H](CCCN=C(N)N)C(=O)N[C@@H](Cc2c[nH]c3ccccc23)C(=O)O)NC(=O)[C@H]([C@@H](C)O)NC(=O)[C@H](Cc2ccccc2)NC(=O)[C@H]([C@@H](C)CC)NC(=O)[C@H](C(C)C)NC(=O)[C@H](C)NC(=O)[C@H](CCCN=C(N)N)NC1=O | IC50 (Relaxin-3 receptor 1 [3]): 0.00513 µM; IC50 (Relaxin-3 receptor 2): 0.00794 µM; Ki (Relaxin receptor 1): > 10 µM
14 | 2.95 | H-RAAPYGVRLSGREFIRAVIFTSGGSRW-OH | –
